According to patent publication US8318746B2, “Nitrogen-containing five-membered heterocyclic compound” (Takeda Pharmaceutical Company Limited, priority 2007, dated 2012):

Tests used:
[1] = molecular target: T1, GST-hLGK1 (GST added to the amino terminal of human liver GK) (Homo sapiens, UniProt P35557); experiment: Measurement of GK activation value; assay type: biochemical; conditions: test compound final concentration 10 μmol/L; reaction rate divided by that of control group (50% DMSO without test compound); Mant-ATP substrate, D-glucose, 37° C., 60 min
T1 construct: with a BamHI site added to immediately before the initiation codon; made in house; host or cells: Escherichia coli BL21 (Stratagene), plasmid pGEX6P-2/hLGK1
T1 sequence (P35557 1-464 isoform P35557-3): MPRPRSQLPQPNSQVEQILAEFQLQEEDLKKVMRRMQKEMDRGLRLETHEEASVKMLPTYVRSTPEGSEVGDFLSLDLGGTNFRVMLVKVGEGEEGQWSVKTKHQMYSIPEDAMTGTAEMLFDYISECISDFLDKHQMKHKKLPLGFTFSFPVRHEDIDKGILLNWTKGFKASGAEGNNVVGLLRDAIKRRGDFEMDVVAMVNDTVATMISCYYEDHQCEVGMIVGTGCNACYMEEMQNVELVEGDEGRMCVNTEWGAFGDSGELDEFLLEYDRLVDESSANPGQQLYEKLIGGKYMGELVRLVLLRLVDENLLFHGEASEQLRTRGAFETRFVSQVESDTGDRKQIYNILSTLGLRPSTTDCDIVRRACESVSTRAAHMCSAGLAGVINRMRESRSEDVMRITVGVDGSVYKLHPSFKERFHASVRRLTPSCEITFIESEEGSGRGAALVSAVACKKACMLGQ
Experimental: To each well of a 384-well black plate (Nalge Nunc International K.K.) was added 5 μL of 50% dimethyl sulfoxide solution containing test compound diluted to 100 μmol/L. Then, GST-hLGK1 obtained in Reference Example 2A was diluted with measurement buffer (containing 50 mM HEPES (pH 7.4), 200 mM KCl, 5 mM MgCl2, 2.5 mM DTT and 50 μM 2′-(or-3′)—O—(N-methylanthraniloyl) adenosine 5′-triphosphate (Mant-ATP) (Jena BioScience)) to 6 μg/mL and 35 μL thereof was added to each well.
Each well was stood at 37° C. for 10 min, 25 mM D-glucose solution (10 μL) was added to start the reaction. The final concentration of the test compound was 10 μmol/L.
Each, well after the reaction was stood at 37° C. for 60 min, and the reaction was quenched by adding 25 μL of a quenching solution (containing 200 mM HEPES (pH 7.4), 20 mM MgCl2, 200 mM EDTA, 0.03% Triton-X 100, 0.3% Coating 3 reagent (Caliper Life Sciences, Inc.)).
2′-(or-3′)-O-(N-methylanthraniloyl)adenosine 5′-triphosphate (Mant-ATP, substrate) and Mant-ADP (reaction resultant product) were separated from each well after the reaction by a microchip type capillary electrophoresis apparatus 250 HTS (Caliper Life Sciences, Inc.). The reaction rate [(reaction resultant product peak height)/(reaction resultant product peak height+substrate peak height)×100(%)] was calculated from the ratio of the substrate peak height and reaction resultant product peak height obtained by fluorescence detection (excitation wavelength 355 nm, measurement wavelength 460 nm) and used as the index of GK activity.
As a control group, the reaction rate was calculated in the same manner as above except that “solution in 50% dimethyl sulfoxide (without test compound)” was used instead of “solution of test compound in 50% dimethyl sulfoxide”.
The reaction rate of the well (test compound addition group) added with the test compound was divided by the reaction rate of the control group and the obtained percentage was taken as the GK activation value (Emax) of the test compound.

Compound	Emax at 10 µM [1]	melting point
CS(=O)(=O)c1ccc(C(C[C@H]2CCC(=O)C2)c2ccc(-c3ccc(CO)cn3)[nH]2)cc1Cl (stereo partly shown) [Example 197]	142%	
CS(=O)(=O)c1ccc(C(CC2CCCC2)c2ccc(-c3ccccn3)[nH]2)cc1 (stereo not shown) [Example 2, 2-(5-{2-cyclopentyl-1-[4-(methylsulfonyl)phenyl]ethyl}-1H-pyrrol-2-yl)pyridine]	168%	
O=S(=O)(c1ccc(C(CC2CCOCC2)c2ccc(-c3nnc(CN4CCOCC4)s3)[nH]2)cc1)C1CC1 (stereo not shown) [Example 228, 4-{[5-(5-{1-[4-(cyclopropylsulfonyl)phenyl]-2-(tetrahydro-2H-pyran-4-yl)ethyl}-1H-pyrrol-2-yl)-1,3,4-thiadiazol-2-yl]methyl}morpholine]	145%	
CS(=O)(=O)c1ccc(C(CC2CCOCC2)c2ccc(-c3ccc(C(O)CO)cn3)[nH]2)cc1Cl (stereo not shown) [Example 91, 1-[6-(5-{1-[3-chloro-4-(methylsulfonyl)phenyl]-2-(tetrahydro-2H-pyran-4-yl)ethyl}-1H-pyrrol-2-yl)pyridin-3-yl]ethane-1,2-diol]	142%	
O=S1(=O)CCN(Cc2ccc(-c3ccc(C(CC4CCOCC4)c4ccc(S(=O)(=O)C5CC5)cc4)[nH]3)nc2)CC1 (stereo not shown) [Example 63]	154%	
O=C(NC1CC1)c1ccc(-c2ccc(C(CC3CCOCC3)c3ccc(S(=O)(=O)C4CC4)cc3)[nH]2)nc1 (stereo not shown) [Example 119, N-cyclopropyl-6-(5-{1-[4-(cyclopropylsulfonyl)phenyl]-2-(tetrahydro-2H-pyran-4-yl)ethyl}-1H-pyrrol-2-yl)pyridine-3-carboxamide]		134 to 136 °C
CC(C)(O)c1ccc(-c2ccc(C(CC3CCOCC3)c3ccc(S(=O)(=O)C4CC4)cc3)[nH]2)nc1 (stereo not shown) [Example 125, 2-[6-(5-{1-[4-(cyclopropylsulfonyl)phenyl]-2-(tetrahydro-2H-pyran-4-yl)ethyl}-1H-pyrrol-2-yl)pyridin-3-yl]propan-2-ol]		112 to 114 °C
CC(O)COc1ccc(-c2ccc(C(CC3CCOCC3)c3ccc(S(=O)(=O)C4CC4)cc3)[nH]2)nc1 (stereo not shown) [Example 117, 1-{[6-(5-{1-[4-(cyclopropylsulfonyl)phenyl]-2-(tetrahydro-2H-pyran-4-yl)ethyl}-1H-pyrrol-2-yl)pyridin-3-yl]oxy}propan-2-ol]		116 to 118 °C
NC(=O)c1ccc(-c2ccc(C(CC3CCOCC3)c3ccc(S(=O)(=O)C4CC4)cc3)[nH]2)nc1 (stereo not shown) [Example 124, 6-(5-{1-[4-(cyclopropylsulfonyl)phenyl]-2-(tetrahydro-2H-pyran-4-yl)ethyl}-1H-pyrrol-2-yl)pyridine-3-carboxamide]		136 to 138 °C
O=C(O)Cc1cnc(-c2ccc(C(CC3CCOCC3)c3ccc(S(=O)(=O)C4CC4)cc3)[nH]2)s1 (stereo not shown) [Example 149, [2-(5-{1-[4-(cyclopropylsulfonyl)phenyl]-2-(tetrahydro-2H-pyran-4-yl)ethyl}-1H-pyrrol-2-yl)-1,3-thiazol-5-yl]acetic acid]		246 to 247 °C (dec.)
CC(O)c1cnc(-c2ccc(C(CC3CCOCC3)c3ccc(S(=O)(=O)C4CC4)cc3)[nH]2)s1 (stereo not shown) [Example 166, Optically Active Form of 1-[2-(5-{1-[4-(cyclopropylsulfonyl)phenyl]-2-(tetrahydro-2H-pyran-4-yl)ethyl}-1H-pyrrol-2-yl)-1,3-thiazol-5-yl]ethanol]		105 to 106 °C
O=C(Cc1ccc(-c2ccc(C(CC3CCOCC3)c3ccc(S(=O)(=O)C4CC4)cc3)[nH]2)nc1)N1CCC1 (stereo not shown) [Example 131, 5-(2-(azetidin-1-yl)-2-oxoethyl)-2-(5-{1-[4-(cyclopropylsulfonyl)phenyl]-2-(tetrahydro-2H-pyran-4-yl)ethyl}-1H-pyrrol-2-yl)pyridine]		94 to 98 °C
CS(=O)(=O)c1ccc(C(CC2CCOCC2)c2ccc(-c3nnc(CO)s3)[nH]2)cc1 (stereo not shown) [Example 221, [5-(5-{1-[4-(methylsulfonyl)phenyl]-2-(tetrahydro-2H-pyran-4-yl)ethyl}-1H-pyrrol-2-yl)-1,3,4-thiadiazol-2-yl]methanol]		199 to 201 °C
CCOC(=O)c1cc(-c2nccs2)[nH]c1C(CC1CCOCC1)c1ccc(S(=O)(=O)C2CC2)cc1 (stereo not shown) [Example 103, Ethyl 2-{1-[4-(cyclopropylsulfonyl)phenyl]-2-(tetrahydro-2H-pyran-4-yl)ethyl}-5-(1,3-thiazol-2-yl)-1H-pyrrole-3-carboxylate]		178 to 179 °C
CC(=O)N1CCN(Cc2cnc(-c3ccc(C(CC4CCOCC4)c4ccc(S(=O)(=O)C5CC5)cc4)[nH]3)s2)CC1.Cl (stereo not shown)		156 to 158 °C
NC(=O)c1cc(-c2nccs2)[nH]c1C(CC1CCOCC1)c1ccc(S(=O)(=O)C2CC2)cc1 (stereo not shown) [Example 106, 2-{1-[4-(cyclopropylsulfonyl)phenyl]-2-(tetrahydro-2H-pyran-4-yl)ethyl}-5-(1,3-thiazol-2-yl)-1H-pyrrole-3-carboxamide]		241 to 243 °C
COC(=O)c1ccc(-c2ccc(C(CC3CCOCC3)c3ccc(S(=O)(=O)C4CC4)cc3)[nH]2)nc1 (stereo not shown) [Example 118, Methyl 6-(5-{1-[4-(cyclopropylsulfonyl)phenyl]-2-(tetrahydro-2H-pyran-4-yl)ethyl}-1H-pyrrol-2-yl)pyridine-3-carboxylate]		150 to 152 °C

Now from value to molecule:

Emax at 10 µM [1]	melting point	Compound
148%		CC(O)c1cnc(-c2ccc(C(CC3CCOCC3)c3ccc(S(C)(=O)=O)c(Cl)c3)[nH]2)s1 (stereo not shown) [Example 172, 1-[2-(5-{1-[3-chloro-4-(methylsulfonyl)phenyl]-2-(tetrahydro-2H-pyran-4-yl)ethyl}-1H-pyrrol-2-yl)-1,3-thiazol-5-yl]ethanol]
	87 to 90 °C	CCOCCNC(=O)c1ccc(-c2ccc(C(CC3CCOCC3)c3ccc(S(=O)(=O)C4CC4)cc3)[nH]2)nc1 (stereo not shown) [Example 122, 6-(5-{1-[4-(cyclopropylsulfonyl)phenyl]-2-(tetrahydro-2H-pyran-4-yl)ethyl}-1H-pyrrol-2-yl)-N-(2-ethoxyethyl)pyridine-3-carboxamide]
	175 to 176 °C	O=Cc1cnc(-c2ccc(C(CC3CCOCC3)c3ccc(S(=O)(=O)C4CC4)cc3)[nH]2)s1 (stereo not shown) [Example 158, 2-(5-{1-[4-(cyclopropylsulfonyl)phenyl]-2-(tetrahydro-2H-pyran-4-yl)ethyl}-1H-pyrrol-2-yl)-1,3-thiazole-5-carbaldehyde]
	114 to 116 °C	CC(C)=Cc1ccc(-c2ccc(C(CC3CCOCC3)c3ccc(S(=O)(=O)C4CC4)cc3)[nH]2)nc1 (stereo not shown) [Example 126, 2-(5-{1-[4-(cyclopropylsulfonyl)phenyl]-2-(tetrahydro-2H-pyran-4-yl)ethyl}-1H-pyrrol-2-yl)-5-(2-methylprop-1-en-1-yl)pyridine]
	208.5 to 208.6 °C	O=S(=O)(c1ccc(C(CC2CCOCC2)c2ccc(-c3nnc(CO)s3)[nH]2)cc1)C1CC1 (stereo not shown) [Example 206, [5-(5-{1-[4-(cyclopropylsulfonyl)phenyl]-2-(tetrahydro-2H-pyran-4-yl)ethyl}-1H-pyrrol-2-yl)-1,3,4-thiadiazol-2-yl]methanol]
	89 to 90 °C	CS(=O)(=O)c1ccc(C(CC2CCOCC2)c2ccc(-c3ccccn3)[nH]2)cn1 (stereo not shown) [Example 137, 2-(methylsulfonyl)-5-[1-(5-(pyridin-2-yl)-1H-pyrrol-2-yl)-2-(tetrahydro-2H-pyran-4-yl)ethyl]pyridine]
	135 to 136 °C	CC(CC1CCOCC1)(c1ccc(S(C)(=O)=O)cn1)c1ccc(-c2ccccn2)[nH]1 (stereo not shown) [Example 245, 2-[1-methyl-1-(5-(pyridin-2-yl)-1H-pyrrol-2-yl)-2-(tetrahydro-2H-pyran-4-yl)ethyl]-5-(methylsulfonyl)pyridine]
	120 to 122 °C	COC(=O)Nc1cc(-c2nccs2)[nH]c1C(CC1CCOCC1)c1ccc(S(=O)(=O)C2CC2)cc1 (stereo not shown) [Example 181, Methyl [2-{1-[4-(cyclopropylsulfonyl)phenyl]-2-(tetrahydro-2H-pyran-4-yl)ethyl}-5-(1,3-thiazol-2-yl)-1H-pyrrol-3-yl]carbamate]
